≈ marks a conversion by molar mass, not a printed value.
System: kinetic aqueous solubility, PBS pH 7.4, LC-UV/MS
Assay: Identifying a Potential Treatment of Ataxia-Telangiectasia: Solubility Profiling
Details: hits give high values
Description: Ataxia-telangiectasia (A-T) is a devastating and progressive disease for which, there is no cure. Although A-T is a multisystem disease, it is stereotyped characterized by its neurological symptoms such as truncal ataxia, due to cerebellar cortical degeneration of the Purkinje and granule cells. The underlying genetic cause of A-T is null mutations in the ATM (A-T mutated) gene. ATM is a nuclear serine/threonine kinase that functions as a master regulator of the cellular responses to double strand breaks (DSBs) in the DNA. Upon activation by DSBs, ATM phosphorylates a plethora of downstream targets, including KAP-1 on […]. KAP-1 phosphorylation occurs shortly in response to DSBs and mediates global chromatin relaxation, which facilitates DSB repair. The assay provider and the NCGC have developed assays to discover small molecules that compensate for the loss of ATM and have discovered a probe. The resulting probe is further characterized in several ADME assays. This bioassay provides profiling data on aqueous kinetic solubility (PBS @ pH 7.4) of one of the lead compounds developed in the ATM project. NIH Chemical Genomics Center [NCGC] NIH Molecular Libraries Probe Centers Network [MLPCN] MLPCN Grant: MH089030-01 Assay Submitter (PI): Wei Zheng and Yosef Shiloh
1. […] Concentration of the supernatant was determined by LC-UV or LC-MS/MS

CC(=O)c1c(O)c(C)c(O)c(Cc2c(O)c3c(c(C(=O)/C=C/c4ccccc4)c2O)OC(C)(C)C=C3)c1O
solubility: 250 µM (≈ 129 µg/mL)
